Tests used:
[1] = test system: duodenum, jejunum, kidney and other harvested tissues; test: Binding studies of FITC-labeled zsig33 peptides in situ (tail vein injection, fluorescent microscopy of tissue sections); assay type: in vivo, Balb C male mice; details: FITC-labeled peptide, 0.5 ml (0.5 mg) tail vein, circulated 15 minutes, microscopy at 495 nm
Experimental: Ten week old Balb C male mice were anesthetized via intramuscular injection and tested for binding of zsig33 peptides in vivo.
Two peptides were tested: the first peptide, zsig33-1, (See Example 4) consisted of residues 24 to 37 of SEQ ID NO:2, and the second peptide, zsig33-2, consisted of residues 24 to 41 of SEQ ID NO:2. A single glycine was used as a negative control. Additionally, a “scrambled” negative control consisting of residues the first peptide which had been rearranged (SEQ ID NO:15) was also tested. The peptides and controls were coupled to fluorescein isothiocyantate (FITC, Molecular Probes, Eugene, Oreg.) in the following manner: The peptides, glycine control and FITC were dissolved in 0.1 M sodium bicarbonate at pH 9.0 to a concentration of 2.0 mg/ml for the peptides and glycine control and 5 mg/ml for FITC, avoiding exposure of the FITC to strong light. […] The buffer was changed daily and unbound FITC in the post-dialyzed buffer was measured by HPLC. […] Peptide- or glycine-bound FITC was determined by measuring the absorbance of the dialyzed FITC-bound material at 498 nm and dividing by the extinction coefficient of fluorescein, […]. The molar ratio of fluorescein to peptide (mole FITC/mole peptide) was then determined. […]

[2] = test system: antral portion of the stomach; test: Effects on gastrointestinal contractility (transducing crystals on antral portion of the stomach); assay type: in vivo, Sprague-Dawley rats
Experimental: Two male Sprague-Dawley rats, approximately 12 weeks old (Harlan, Indianapolis, Ind.) were anesthetized with urethane and their stomachs were exposed through a small abdominal incision. Two 2.4 mm transducing crystals (Sonometrics, Ontario, Canada) were placed on the antral portion of the stomach such that circular contractions could be monitored as a change in the distance between the two crystals. The crystals were attached with VETBOND TISSUE ADHESIVE (3M, St. Paul, Minn.).
10 ml of norepinephrine (NE) at 1 mM caused a reduction in the distance between the two crystals. The amplitude of the NE-induced decrease was approximately 50% of the acetylcholine-induced increase in distance. Both responses were transient.
A negative control of 10 ml of phosphate buffer solution (PBS) applied topically between the crystals had no effect.
A 14 amino acid zsig33 peptide (zsig33-1, as shown in Example 4) was dissolved in PBS and 10 ml was applied topically for a final concentration of 1 mg, 10 mg or 100 mg.

[3] = Effects on glucose absorption after oral glucose challenge; assay type: in vivo, ob/ob mice; details: 100 mg orally, 30 minutes prior to an oral glucose challenge (0.5 ml of 25% glucose), serum glucose
Experimental: Eight female ob/ob mice, approximately 6 weeks old (Jackson Labs, Bar Harbor, Me.) were adapted to a 4 hour daily feeding schedule for two weeks. After two weeks on the feeding schedule, the mice were given 100 mg of a zsig33 peptide (zsig33-1, as shown in Example 4) in 100 ml sterile 0.1% BSA by oral gavage, immediately after their eating period (post-prandially). Thirty minutes later, the mice were challenged orally with a 0.5 ml volume of 25% glucose. Retroorbital bleeds were done to determine serum glucose levels. Blood was drawn prior to zsig33 dosing, prior to oral glucose challenge, and at 1, 2, 4, and 20 hours following the glucose challenge.

[4] = test system: stomachs of fasted male Sprague-Dawley rats; test: Effects on gastric emptying (transit of phenol red through the stomach); assay type: in vivo; details: 1 μg applied topically to the stomach five minutes after gavage, measured 30 minutes after the gavage
Experimental: The effect of topically applied zsig33 peptide (amino acid 24 to 37 of SEQ ID NO: 2) on the transit of phenol red through the stomachs of fasted male Sprague-Dawley rats (Harlan, Indianapolis, Ind.) was evaluated. The rats (6 animals, 8 weeks old) were fasted 24 hrs prior to being anesthetized with urethane (0.5 ml/100 grams of 25% solution). After anesthetizing, the animals were orally gavaged with 1 ml of Phenol Red solution (50 mg/ml in 2% methylcellulose solution).
The stomach of each animal was exposed through a small abdominal incision and either 1 μg zsig33 peptide or a 14 amino acid control of a scrambled sequence peptide was applied topically to the stomach five minutes following the gavage. The amount of Phenol Red remaining in the stomach was determined by measuring optical density of the extracted stomach contents 30 minutes after the gavage.

[5] = Effects on body weight, food intake and glucose clearance; assay type: in vivo, ob/ob mice; details: 1 mg/mouse orally twice daily for fourteen days, versus scrambled peptide
Experimental: Sixteen female ob/ob mice, 8 weeks old, (Jackson Labs, Bar Harbor, Me.) were adapted to a special 4 hour daily feeding schedule for two weeks. The were fed ad libitum from 7:30-11:30 am daily. After two weeks on the feeding schedule, the mice were divided into two groups of 8. One group was given 1.0 mg/mouse of zsig33-1 (14 amino acid peptide) and the other vehicle (a 14 amino acid scrambled sequence peptide) in […] sterile 0.1% BSQA by oral gavage just prior to receiving food, and at the end of the 4 hour feeding period. The mice were […] twice daily for fourteen days, during which time food intake and body weight was measured daily. On day 14, immediately after the second oral gavage of the zsig33-1 peptide, the mice were challenged orally with an 0.5 ml volume of 25% glucose. Retro-orbital bleeds were done to determine serum glucose levels immediately prior to administration of the zsig33-1 peptide or vehicle (t=30 min.), and also at 0, 1, 2, and 4 hours following the glucose challenge.

Row | fluorescence in duodenum, jejunum and in the collecting ducts and convoluted tubules of the kidney compared to the glycine and "scrambled" controls [1] | Compound | change in crystal distance (contractions) ([2]; 10 ml in PBS applied topically, 1 mg) | response in rate and amplitude of the contractions ([2]; 10 ml in PBS applied topically, 10 mg and 100 mg, compared with 1 mg) | post-prandial glucose absorption [3] | reduction of the amount of Phenol Red remaining in the stomach compared to a scrambled peptide [4] | daily body weight [5] | daily food intake [5] | amplitude of the NE-induced decrease relative to the acetylcholine-induced increase in distance ([2]; 10 ml of 1 mM applied topically) | change in the distance between the two crystals ([2]; 10 ml of 1 mM applied topically to the stomach, anesthetized rats)
1 | increased fluorescence | zsig33-1: 14 amino acid peptide corresponding to amino acid residue 24 (Gly) to amino acid residue 37 (Gln) of SEQ ID NO: 2 (GSSFLSPEHQRVQQ; listed as Homo sapiens) | sustained, rhythmic increase and decrease in crystal distance | enhanced responses in both rate and amplitude | enhanced post-prandial glucose absorption | approximately 25% | no affect | no affect |  | 
2 |  | NC[C@H](O)c1ccc(O)c(O)c1 [norepinephrine, reference compound] |  |  |  |  |  |  | approximately 50% | reduction
3 | increased fluorescence | zsig33-2: peptide consisting of residues 24 to 41 of SEQ ID NO:2 (GSSFLSPEHQRVQQRKES; listed as Homo sapiens) |  |  |  |  |  |  |  | 
